Measurements reported in the NIST ThermoML archive (doi:10.1016/j.tca.2008.03.009).
± gives the expanded uncertainty stated by the source.

Test: molar heat capacity at constant pressure
Conditions: 328.1 K; 101.33 kPa; Crystal; Small sample (50 mg) DSC

molar heat capacity at constant pressure: 111.61 ± 2.3 J/K/mol
Compound: [BH4-].[Na+] [sodium tetrahydroborate]
